Assay results: PubChem BioAssay AID264 (DTP/NCI, 2004)
Several values for one entry are separate records, joined by “and”; a condition that tells them apart may be missing. Equal entries are not always repeated. Inconclusive results are not listed.

Tested on: nude mice, LX-1 lung xenograft intrarenal, tumor weight T/C
Assay: NCI In Vivo Anticancer Drug Screen. Data for tumor model Human Lung LX-1 Xenograft (intrarenal inoculation) in NU/NU Swiss (nude) mice
Conditions: endpoint: mean tumor weight change, higher = larger tumour
Outline: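 Activity was scored by measuring tumors in treated animals and in vehicle controls, then reporting the treated result as a fraction of the control result.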

[1] = dose: 12.5 mg/kg/injection, schedule: Q01DX010 (sc), vehicle: Klucel (hydroxypropylcellulose) (HPC)
[2] = dose: 25.0 mg/kg/injection, schedule: Q01DX010 (sc), vehicle: Klucel (hydroxypropylcellulose) (HPC)
[3] = dose: 100.0 mg/kg/injection, schedule: Q01DX010 (sc), vehicle: Klucel (hydroxypropylcellulose) (HPC)
[4] = dose: 300.0 mg/kg/injection, schedule: Q04DX003 (sc), vehicle: saline with Tween-80
[5] = dose: 1200.0 mg/kg/injection, schedule: Q04DX003 (sc), vehicle: saline with Tween-80
[6] = dose: 50.0 mg/kg/injection, schedule: Q01DX010 (sc), vehicle: Klucel (hydroxypropylcellulose) (HPC)
[7] = dose: 100.0 mg/kg/injection, schedule: Q01DX010 (sc), vehicle: saline with Tween-80
[8] = dose: 200.0 mg/kg/injection, schedule: Q01DX010 (sc), vehicle: saline with Tween-80
[9] = dose: 150.0 mg/kg/injection, schedule: Q04DX003 (sc), vehicle: Klucel (hydroxypropylcellulose) (HPC)
[10] = dose: 300.0 mg/kg/injection, schedule: Q04DX003 (sc), vehicle: Klucel (hydroxypropylcellulose) (HPC)
[11] = dose: 600.0 mg/kg/injection, schedule: Q04DX003 (sc), vehicle: Klucel (hydroxypropylcellulose) (HPC)
[12] = dose: 1200.0 mg/kg/injection, schedule: Q04DX003 (sc), vehicle: Klucel (hydroxypropylcellulose) (HPC)
[13] = dose: 2400.0 mg/kg/injection, schedule: Q04DX003 (sc), vehicle: Klucel (hydroxypropylcellulose) (HPC)

C1CCC2[N-]CC3CCCCC3[N-]CC3CCCCC3[N-]CC3CCCCC3[N-]CC2C1.[Cu] (configuration not stated)
T/C (dose: 6.25 mg/kg/injection, schedule: Q01DX010 (sc), vehicle: Klucel (hydroxypropylcellulose) (HPC)): 100 % of control | T/C [1]: 87 % of control | T/C [2]: 51 % of control

O=C1C(NCC(O)CO)=C(N2CC2)C(=O)C(NCC(O)CO)=C1N1CC1 (configuration not stated)
T/C (dose: 4.0 mg/kg/injection, schedule: Q04DX003 (ip), vehicle: saline): 102 % of control | T/C (dose: 8.0 mg/kg/injection, schedule: Q04DX003 (ip), vehicle: saline): 84 % of control | T/C (dose: 16.0 mg/kg/injection, schedule: Q04DX003 (ip), vehicle: saline): 61 % of control | T/C (dose: 32.0 mg/kg/injection, schedule: Q04DX003 (ip), vehicle: saline): 50 % of control

CC(=O)OCC(=O)[C@@]12OC(C)(C)O[C@@H]1C[C@H]1[C@@H]3CC(C=O)=C4C=C(OCCCl)CC[C@]4(C)[C@@]3(F)[C@@H](O)C[C@@]12C
T/C (dose: 25.0 mg/kg/injection, schedule: Q04DX003 (sc), vehicle: Klucel (hydroxypropylcellulose) (HPC)): 79 % of control | T/C (dose: 50.0 mg/kg/injection, schedule: Q04DX003 (sc), vehicle: Klucel (hydroxypropylcellulose) (HPC)): 72 % of control

C[N+](C)(C)c1cc2c(nn1)Nc1ccccc1S2
T/C [3]: 89 % of control

Cc1ccc(NC(=O)Oc2ccc(Br)cc2Br)c([N+](=O)[O-])c1
T/C [4]: 61 % of control | T/C (dose: 600.0 mg/kg/injection, schedule: Q04DX003 (sc), vehicle: saline with Tween-80): 98 % of control | T/C [5]: 93 % of control | T/C (dose: 2400.0 mg/kg/injection, schedule: Q04DX003 (sc), vehicle: saline with Tween-80): 68 % of control

CC(=O)OCC1OC(OC2=C(CC=C(C)C)C(=O)c3ccccc3C2=O)C(OC(C)=O)C(OC(C)=O)C1OC(C)=O (configuration not stated)
T/C [1]: 61 % of control | T/C [2]: 119 % of control | T/C [6]: 97 % of control | T/C [3]: 83 % of control

O=C1NC(c2ccccc2)N=C2Oc3ccccc3C=C12 (configuration not stated)
T/C (dose: 12.5 mg/kg/injection, schedule: Q01DX010 (sc), vehicle: saline with Tween-80): 186 % of control | T/C (dose: 25.0 mg/kg/injection, schedule: Q01DX010 (sc), vehicle: saline with Tween-80): 123 % of control | T/C (dose: 50.0 mg/kg/injection, schedule: Q01DX010 (sc), vehicle: saline with Tween-80): 85 % of control | T/C [7]: 105 % of control | T/C [8]: 58 % of control

CCOC(=O)c1ccc(NC(=O)Nc2nccs2)cc1
T/C [7]: 99 % of control | T/C [8]: 107 % of control | T/C (dose: 400.0 mg/kg/injection, schedule: Q01DX010 (sc), vehicle: saline with Tween-80): 92 % of control | T/C (dose: 800.0 mg/kg/injection, schedule: Q01DX010 (sc), vehicle: saline with Tween-80): 66 % of control

COc1cc(C(=O)c2cc3c(cc2C)OCO3)cc(OC)c1OC
T/C [9]: 78 % of control | T/C [10]: 71 % of control | T/C [11]: 80 % of control | T/C [12]: 82 % of control

COC1/C=C/O[C@@]2(C)Oc3c(C)c(O)c4c(O)c(cc(O)c4c3C2=O)NC(=O)/C(C)=C\C=C\[C@H](C)C(O)[C@@H](C)[C@@H](O)[C@@H](C)[C@H](OC(C)=O)[C@@H]1C (some centres not stated)
T/C (dose: 300.0 mg/kg/injection, schedule: Q04DX003 (sc), vehicle: suspension in saline): 60 % of control | T/C (dose: 600.0 mg/kg/injection, schedule: Q04DX003 (sc), vehicle: suspension in saline): 84 % of control | T/C (dose: 1200.0 mg/kg/injection, schedule: Q04DX003 (sc), vehicle: suspension in saline): 53 % of control | T/C (dose: 2400.0 mg/kg/injection, schedule: Q04DX003 (sc), vehicle: suspension in saline): 64 % of control

CSc1nc(=O)[nH]nc1SCc1ccccc1
T/C (dose: 100.0 mg/kg/injection, schedule: Q04DX003 (sc), vehicle: Klucel (hydroxypropylcellulose) (HPC)): 101 % of control | T/C (dose: 200.0 mg/kg/injection, schedule: Q04DX003 (sc), vehicle: Klucel (hydroxypropylcellulose) (HPC)): 93 % of control | T/C (dose: 400.0 mg/kg/injection, schedule: Q04DX003 (sc), vehicle: Klucel (hydroxypropylcellulose) (HPC)): 64 % of control | T/C (dose: 800.0 mg/kg/injection, schedule: Q04DX003 (sc), vehicle: Klucel (hydroxypropylcellulose) (HPC)): 68 % of control

Nc1nc(=O)n(C2OC(CO)C(O)C2O)cc1F (configuration not stated)
T/C [9]: 74 % of control | T/C [10]: 68 % of control | T/C [11]: 84 % of control | T/C [12]: 48 % of control

[N-]=[N+]=CC(=O)CCC(=O)C=[N+]=[N-]
T/C (dose: 1.5 mg/kg/injection, schedule: Q01DX010 (sc), vehicle: DMSO): 69 % of control | T/C (dose: 3.0 mg/kg/injection, schedule: Q01DX010 (sc), vehicle: DMSO): 27 % of control

COC(=O)Nc1cccc(-c2nc3ccc(NC(=O)OC)cc3c(=O)n2-c2ccccc2)c1
T/C [2]: 99 % of control | T/C [6]: 160 % of control | T/C [3]: 93 % of control | T/C (dose: 200.0 mg/kg/injection, schedule: Q01DX010 (sc), vehicle: Klucel (hydroxypropylcellulose) (HPC)): 84 % of control

C1OC1CN1CCN(CC2CO2)CC1 (configuration not stated)
T/C (dose: 16.0 mg/kg/injection, schedule: Q01DX010 (sc), vehicle: saline): 27 % of control

CO[C@@]12[C@H](COC(N)=O)C3=C(C(=O)C(C)=C(N)C3=O)N1C[C@@H]1N[C@@H]12
T/C (dose: 0.63 mg/kg/injection, schedule: Q04DX003 (sc), vehicle: saline): 98 % of control | T/C (dose: 1.25 mg/kg/injection, schedule: Q04DX003 (sc), vehicle: saline): 32 % of control and 40 % of control and 42 % of control | T/C (dose: 1.5 mg/kg/injection, schedule: Q04DX003 (sc), vehicle: saline): 42 % of control | T/C (dose: 3.0 mg/kg/injection, schedule: Q04DX003 (sc), vehicle: saline): 14 % of control and 16 % of control (2×) | T/C (dose: 3.0 mg/kg/injection, schedule: Q04DX003 (sc), vehicle: suspension in saline): 3 % of control | T/C (dose: 6.0 mg/kg/injection, schedule: Q04DX003 (sc), vehicle: suspension in saline): -55 % of control | T/C (dose: 12.0 mg/kg/injection, schedule: Q04DX003 (sc), vehicle: saline): -76 % of control

CCCCNC(C)C1(O)Cc2c(O)c3c(c(O)c2C(OC2CC(N)C(O)C(C)O2)C1)C(=O)c1c(OC)cccc1C3=O (configuration not stated)
T/C (dose: 300.0 mg/kg/injection, schedule: Q04DX003 (sc), vehicle: water): 99 % of control | T/C (dose: 600.0 mg/kg/injection, schedule: Q04DX003 (sc), vehicle: water): 84 % of control

C[C@]12CC[C@H](O)CC1=CC[C@@H]1[C@@H]2CC[C@]2(C)C(=O)CC[C@@H]12
T/C (dose: 150.0 mg/kg/injection, schedule: Q04DX003 (sc), vehicle: saline with Tween-80): 116 % of control | T/C [4]: 115 % of control | T/C [5]: 107 % of control

CN1C(=O)CC2(CCN(CCCC(=O)c3ccc(F)cc3)CC2)C1=O
T/C (dose: 18.75 mg/kg/injection, schedule: Q04DX003 (sc), vehicle: suspension in saline): 33 % of control | T/C (dose: 75.0 mg/kg/injection, schedule: Q04DX003 (sc), vehicle: suspension in saline): 85 % of control | T/C (dose: 150.0 mg/kg/injection, schedule: Q04DX003 (sc), vehicle: suspension in saline): 77 % of control

Oc1ccccc1C=NCCC[N-]CCCN=Cc1ccccc1O.[Co]
T/C (dose: 50.0 mg/kg/injection, schedule: Q01DX010 (sc), vehicle: suspension in saline): 124 % of control | T/C (dose: 100.0 mg/kg/injection, schedule: Q01DX010 (sc), vehicle: suspension in saline): 79 % of control

S=C(Nc1ccc(Cl)c(Cl)c1)N1c2ccccc2-n2cccc2C1c1cccnc1 (configuration not stated)
T/C [10]: 58 % of control | T/C [11]: 104 % of control | T/C [12]: 71 % of control | T/C [13]: 65 % of control

CC[PH+](CC)CC[S-].CC[PH+](CC)CC[S-].[Au+].[Au+]
T/C (dose: 40.0 mg/kg/injection, schedule: Q04DX003 (sc), vehicle: Klucel (hydroxypropylcellulose) (HPC)): 105 % of control | T/C (dose: 160.0 mg/kg/injection, schedule: Q04DX003 (sc), vehicle: Klucel (hydroxypropylcellulose) (HPC)): 105 % of control | T/C (dose: 320.0 mg/kg/injection, schedule: Q04DX003 (sc), vehicle: Klucel (hydroxypropylcellulose) (HPC)): 96 % of control

OCC1OC(n2cnc3c(NO)ncnc32)C(O)C1O (configuration not stated)
T/C [10]: 105 % of control | T/C [11]: 102 % of control | T/C [12]: 86 % of control | T/C [13]: 68 % of control

CCCCCC(=O)O[C@]1(C(C)=O)CC[C@H]2[C@@H]3CCC4=CC(=O)CC[C@]4(C)[C@H]3CC[C@@]21C
T/C [10]: 91 % of control | T/C [11]: 112 % of control | T/C [12]: 103 % of control | T/C [13]: 84 % of control
